Our source for the IC50 and EC50 values is patent US20100324036A1, “SUBSTITUTED IMIDAZOPYRIDINE DERIVATIVES AS MELANOCORTIN-4 RECEPTOR ANTAGONISTS” (SANTHERA PHARMACEUTICALS (SCHWEIZ) AG, priority 2007, published 2010).

For test [1], the target named is T1, hMC-4R (Homo sapiens, UniProt P32245). Kind of test: Membrane binding assay, competition with fluorescence labeled NDP-alpha-MSH (fluorescence polarization). The settings on record: HEK293 cell membrane preparations. Further details: expressed in transfected cells; host or cells: HEK293 cells (membrane preparations). Background: Polarisation of emitted light reports the rotation of a fluorescent probe.

Test [2] has as its target T1, hMC-4R. Kind of test: Functional assay, cAMP formation in HEK293 membrane preparations (fluorescence polarization). On the technique in general: Cyclic AMP is a second messenger, typically raised through Gs and lowered through Gi signalling.

T1 sequence (P32245 whole entry): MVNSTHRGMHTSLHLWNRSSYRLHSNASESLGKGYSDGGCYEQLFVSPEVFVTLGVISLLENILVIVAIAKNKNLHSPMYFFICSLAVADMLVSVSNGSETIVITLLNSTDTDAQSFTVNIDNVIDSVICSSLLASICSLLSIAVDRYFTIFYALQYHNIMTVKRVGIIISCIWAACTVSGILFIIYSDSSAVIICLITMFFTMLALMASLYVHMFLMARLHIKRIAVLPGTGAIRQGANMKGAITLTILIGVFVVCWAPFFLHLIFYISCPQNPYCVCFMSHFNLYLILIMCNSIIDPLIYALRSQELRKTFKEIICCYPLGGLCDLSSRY

As a reminder, the IC50 is the midpoint of a concentration-inhibition curve. Low readings indicate greater potency, high ones weaker potency. On hMC-4R [1], `CC(C)CCN(CCC(C)C)C(=O)c1ccc2nc(C(=O)N3CCN(C)CC3)c(CCCN3CCCC3)n2c1` [Example 29] registered an IC50 of 100 to 1000 nM. Turning to `CC(C)CCN(CCC(C)C)C(=O)c1ccc2nc(CNc3ccc4c(c3)OCO4)c(CCCN3CCCC3)n2c1` [Example 22], the IC50 on hMC-4R [1] is less than 100 nM.

`CCOC(=O)c1nc2ccc(C(=O)N(CCC(C)C)CCC(C)C)cn2c1CCCN(C)C` [Example 15] gave an IC50 at hMC-4R [1] of 100 to 1000 nM. In turn, `COc1cccc(N(C)c2nc3ccc(C(=O)N(CCC(C)C)CCC(C)C)cn3c2CCCN2CCCC2)c1` [Example 23] had an IC50 at hMC-4R [1] of 100 to 1000 nM.

In the case of `CCNC(=O)c1nc2ccc(C(=O)N(CCC(C)C)CCC(C)C)cn2c1CCCN1CCCC1` [Example 4], the IC50 at hMC-4R [1] is 100 to 1000 nM.

The compound `Cc1noc(-c2nc3ccc(C(=O)N(CCC(C)C)CCC(C)C)cn3c2CCCN(C)C)n1` [Example 17] gave a 50% inhibitory concentration (IC50) at hMC-4R [1] of 100 to 1000 nM.

As to `COCCOC(=O)c1nc2ccc(C(=O)N(CCC(C)C)CCC(C)C)cn2c1CCCN1CCCC1` [Example 19], on hMC-4R [1], the IC50 is less than 100 nM. Regarding `CCOC(=O)CCc1nc2ccc(C(=O)N(CCC(C)C)CCC(C)C)cn2c1CCCN(C)C` [Example 14], the IC50 at hMC-4R [1] was 100 to 1000 nM. Regarding `CC(C)CCN(CCC(C)C)C(=O)c1ccc2nc(-c3n[nH]c(=O)n3C)c(CCCN3CCCC3)n2c1` [Example 13], the IC50 on hMC-4R [1] was 100 to 1000 nM. In the case of `CCOC(=O)c1nc2ccc(C(=O)N(CCC(C)C)CCC(C)C)cn2c1CCCN1CCCC1` [Example 1], the IC50 at hMC-4R [1] was less than 100 nM. `CC(C)CCN(CCC(C)C)C(=O)c1ccc2nc(CCCN)c(CCCN3CCCC3)n2c1` [Example 28] gave an IC50 on hMC-4R [1] of less than 100 nM. `CC(C)CCN(CCC(C)C)C(=O)c1ccc2nc(-c3nc(C(C)(C)O)no3)c(CCCN3CCCC3)n2c1` [Example 11] registered an IC50 at hMC-4R [1] of 100 to 1000 nM. `CC(C)CCN(CCC(C)C)C(=O)c1ccc2nc(-c3ccc4nccn4c3)c(CCCN3CCCC3)n2c1` [Example 24] registered an IC50 at hMC-4R [1] of less than 100 nM.

Consider `CC(C)CCN(CCC(C)C)C(=O)c1ccc2nc(-c3nc(C4CC4)no3)c(CCCN3CCCC3)n2c1` [Example 12], for which the IC50 on hMC-4R [1] is less than 100 nM. In the case of `CC(C)CCN(CCC(C)C)C(=O)c1ccc2nc(CO)c(CCCN3CCCC3)n2c1` [Example 5], the IC50 at hMC-4R [1] is 100 to 1000 nM.

What is called EC50 is the concentration that produces a half-maximal response. `Cc1noc(-c2nc3ccc(C(=O)N(CCC(C)C)CCC(C)C)cn3c2CCCN2CCCC2)n1` [Example 10]: the EC50 on hMC-4R [2] was less than 100 nM. The IC50 on hMC-4R [1] was less than 100 nM. `CC(C)CCN(CCC(C)C)C(=O)c1ccc2nc(C(=O)OCC(C)C)c(CCCN3CCCC3)n2c1` [Example 20] had an IC50 on hMC-4R [1] of less than 100 nM. On the same count and under the same terms, the same measure for `CC(C)CCN(CCC(C)C)C(=O)c1ccc2nc(C(=O)N3CCCC3)c(CCCN3CCCC3)n2c1` [Example 2]: 100 to 1000 nM. On hMC-4R [2], `CC(C)CCN(CCC(C)C)C(=O)c1ccc2nc(-c3nc(C(C)(C)O)no3)c(CCCN(C)C)n2c1` [Example 18] registered an EC50 of 100 to 1000 nM. On hMC-4R [1], this compound had a concentration for half-maximal inhibition (IC50) of 100 to 1000 nM. As to `CC(C)CCN(CCC(C)C)C(=O)c1ccc2nc(CCCNC(=O)OC(C)(C)C)c(CCCN3CCCC3)n2c1` [Example 26], the IC50 on hMC-4R [1] is less than 100 nM. Consider `COCc1noc(-c2nc3ccc(C(=O)N(CCC(C)C)CCC(C)C)cn3c2CCCN2CCCC2)n1` [Example 9], for which the EC50 on hMC-4R [2] lay in the range of 100 to 1000 nM. Besides, the IC50 at hMC-4R [1] is less than 100 nM. With `CC(C)CCN(CCC(C)C)C(=O)c1ccc2nc(N(C)c3ccccn3)c(CCCN3CCCC3)n2c1` [Example 21], the half-maximal inhibitory concentration (IC50) on hMC-4R [1] was 100 to 1000 nM. `CC(C)CCN(CCC(C)C)C(=O)c1ccc2nc(C#N)c(CCCN3CCCC3)n2c1` [Example 8] yielded an EC50 at hMC-4R [2] of 100 to 1000 nM. On hMC-4R [1], this compound registered an IC50 of more than 1000 nM.

The compound `COCc1noc(-c2nc3ccc(C(=O)N(CCC(C)C)CCC(C)C)cn3c2CCCN(C)C)n1` [Example 16] came in with an IC50 on hMC-4R [1] of 100 to 1000 nM. `CC(C)CCN(CCC(C)C)C(=O)c1ccc2nc(CCCN(C)C)c(CCCN3CCCC3)n2c1` [Example 27] came in with an EC50 on hMC-4R [2] of 100 to 1000 nM. Moreover, the IC50 at hMC-4R [1] was less than 100 nM. With `CNC(=O)c1nc2ccc(C(=O)N(CCC(C)C)CCC(C)C)cn2c1CCCN1CCCC1` [Example 3], the concentration for half-maximal inhibition (IC50) at hMC-4R [1] is 100 to 1000 nM. `CC(C)CCN(CCC(C)C)C(=O)c1ccc2nc(C3CC3)c(CCCN3CCCC3)n2c1` [Example 6] registered an IC50 at hMC-4R [1] of 100 to 1000 nM. For `CC(C)CCN(CCC(C)C)C(=O)c1ccc2nc(C(=O)OC(C)C)c(CCCN3CCCC3)n2c1` [Example 7], the EC50 on hMC-4R [2] lay in the range of 100 to 1000 nM. Moreover, the IC50 on hMC-4R [1] was in the range of 100 to 1000 nM.
